US11485740B2, “Inhibitors of TRPC6” (Boehringer Ingelheim International GmbH, priority 2018, dated 2022)

Target: T1, human TRPC6 (Homo sapiens, UniProt Q9Y210)
T1 construct: expressed in transfected cells
T1 sequence (Q9Y210 1-931): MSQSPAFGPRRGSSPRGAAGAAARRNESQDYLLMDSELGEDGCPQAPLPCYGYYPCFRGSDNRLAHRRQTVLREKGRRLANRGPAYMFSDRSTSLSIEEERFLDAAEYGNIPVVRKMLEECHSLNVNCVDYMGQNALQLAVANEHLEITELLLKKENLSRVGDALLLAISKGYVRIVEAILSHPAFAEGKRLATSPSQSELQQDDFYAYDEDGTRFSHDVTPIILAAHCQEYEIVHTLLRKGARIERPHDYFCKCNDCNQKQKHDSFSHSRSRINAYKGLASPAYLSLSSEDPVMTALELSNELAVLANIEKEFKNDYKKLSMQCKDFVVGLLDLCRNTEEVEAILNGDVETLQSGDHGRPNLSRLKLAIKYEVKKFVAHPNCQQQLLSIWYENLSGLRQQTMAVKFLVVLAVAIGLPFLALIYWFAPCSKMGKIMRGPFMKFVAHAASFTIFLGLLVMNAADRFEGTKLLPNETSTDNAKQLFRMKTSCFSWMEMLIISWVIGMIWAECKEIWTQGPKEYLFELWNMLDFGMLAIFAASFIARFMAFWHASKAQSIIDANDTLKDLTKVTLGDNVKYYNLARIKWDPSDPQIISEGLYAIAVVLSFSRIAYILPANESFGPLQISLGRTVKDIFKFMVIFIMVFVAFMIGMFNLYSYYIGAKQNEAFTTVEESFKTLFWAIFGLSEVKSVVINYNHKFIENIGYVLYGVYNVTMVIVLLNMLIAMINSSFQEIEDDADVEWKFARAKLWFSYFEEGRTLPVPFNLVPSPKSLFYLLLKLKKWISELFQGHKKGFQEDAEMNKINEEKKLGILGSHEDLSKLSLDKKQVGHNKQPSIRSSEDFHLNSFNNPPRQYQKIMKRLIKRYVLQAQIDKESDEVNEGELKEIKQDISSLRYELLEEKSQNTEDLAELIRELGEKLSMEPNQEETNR
Experiment: High throughput screening assay: Fluo4/AM calcium fluorescence in HEK293/TREx cells expressing human TRPC6, agonist GSK1702934A (single concentration 10 μM and IC50 curves)
Assay type: cell-based
Conditions: antagonist effect against human TRPC6, 7 concentrations 20 μM to 0.027 μM, triplicate
Excerpt: High Throughput Screening Assay
This screening assay measures human TRPC6 (transient receptor potential cation channel, subfamily C, member 6) ion channel activation via addition either of the commercially available DAG ligand analogue OAG (1-oleoyl-2-acetyl-sn-glycerol) or of the TRPC6 agonist 1-[1-(4,5,6,7,8-pentahydrocyclohepta[2,1-d]thiophen-2-ylcarbonyl)-4-piperidyl]-3-hydrobenzimidazol-2-one (GSK1702934A). The assay utilizes a fluorescent calcium sensor 4-(6-Acetoxymethoxy-2,7-difluoro-3-oxo-9-xanthenyl)-4′-methyl-2,2′-(ethylenedioxy)dianiline-N,N,N′,N′-tetraacetic acid tetrakis(acetoxymethyl) ester (Fluo4/AM) dye from Molecular Devices. Changes (increases) in intracellular calcium concentration as measured by the fluorescent signal increase provide a measurement of channel activity.
The commercially available HEK293/TREx line (Invitrogen) was stably transfected with a human TRPC6 construct and screened by conventional calcium imaging to find clones with human TRPC6 expression following stimulation with 1 μg/ml tetracycline. These cells were maintained in the growth medium recommended by the manufacturer supplemented with 100 μg/ml hygromycin to promote retention of the human TRPC6 construct. After growing to near confluency, cells were plated at a density of ^˜35,000 cells/well in 384 well CellBind plates (Corning) in the presence of 1 μg/ml tetracycline, and allowed to grow for 20-30 hrs. A nearly confluent monolayer resulted. Growth media was removed from the wells and cells were then loaded with […] Fluo4/AM diluted in Ringer's Solution (6.5 g NaCl, 0.42 g KCl, 0.25 g CaCl2) and 0.2 g of sodium bicarbonate; pH 7.4) supplemented with 1% Pluronic F-127 to a final concentration of 0.5 μM and incubated for 60 min, at room temperature. Dye solution was then removed from the cells by inverting plates with a sharp flick, and replaced with 25 μl Ringer's. Following ^˜0.5 hour for recovery from loading, cells were assayed using the Hamamatsu FDSS 6000 system, which permitted illumination at 485 nm. Frames were acquired at a rate of 0.2 Hz. During the assay, the plates were continuously vortexed, with pipette mixing of wells following addition of each reagent. For the screening assay, 26 μl of a diluted compound stock (at 50 μM) was added to each well for 2 minutes following the collection of a short (4 frame) baseline. 13 μl of agonist solution consisting of 125 nM GSK1702934A diluted in high-Ca2+Ringer solution (containing 90 mM Ca2+) was then added to each well, achieving a final concentration of 20 mM Ca2+ and 10 μM test compound. Data was collected for ^˜3 minutes following addition of high Ca2+Ringer. The fluorescent intensity observed at a particular timepoint for each well was divided by the initial fluorescent intensity for that well and the overall response was determined by averaging the resulting fluorescent ratio of the last 4 frames acquired during the experiment excepting the final frame. Negative and Positive controls were included on each plate. Negative controls wells consisted of HEK293/TREx TRPC6 cells exposed to assay buffer and agonist solution, but no test compound. Positive control consisted of wells consisted of HEK293/TREx TRPC6 cells exposed to 25 μM 3-[(2-chlorophenoxy)methyl]phenyl piperidyl ketone (Chembridge) diluted in Ringer's solution and agonist solution. These controls defined zero percent and 100 percent block respectively, and intensity of each well was normalized to these values.
Compounds were tested in triplicate at all concentrations. Standard software was used to fit IC50 curves.

SMILES | IC50 [nM]
COc1cc(C(=O)N2CCC(c3ccc(N)nn3)CC2)ncc1-c1ccc(OC(C)C)c(F)c1 [Compound 20, [4-(6-Amino-pyridazin-3-yl)-piperidin-1-yl]-[5-(3-fluoro-4-isopropoxy-phenyl)-4-methoxy-pyridin-2-yl]-methanone] | 450
COc1cc(C(=O)N2CCC(c3ccc(N)nn3)CC2)ncc1-c1cnc(OC(C)C)nc1 [Compound 53, [4-(6-Amino-pyridazin-3-yl)-piperidin-1-yl]-[5-(2-isopropoxy-pyrimidin-5-yl)-4-methoxy-pyridin-2-yl]-methanone] | 3600
C[C@@H]1CN(C(=O)c2ccc(-c3ccc(C(F)(F)F)cc3)cc2)CCN1c1ccc(N)nc1 [Compound 113, [(R)-4-(6-Amino-pyridin-3-yl)-3-methyl-piperazin-1-yl]-(4′-trifluoromethyl-biphenyl-4-yl)-methanone] | 2800
COc1cc(C(=O)N2CCC(c3ccc(N)nn3)CC2)ncc1-c1ccc(C)c(F)c1 [Compound 34, [4-(6-Amino-pyridazin-3-yl)-piperidin-1-yl]-[5-(3-fluoro-4-methyl-phenyl)-4-methoxy-pyridin-2-yl]-methanone] | 100
COc1cc(C(=O)N2CCN(c3ccc(N)nc3)C[C@@H]2CO)ncc1-c1ccccc1 [Compound 91, [(R)-4-(6-Amino-pyridin-3-yl)-2-hydroxymethyl-piperazin-1-yl]-(4-methoxy-5-phenyl-pyridin-2-yl)-methanone] | 300
COc1cc(C(=O)N2CCC(c3ccc(N)nn3)CC2)ncc1-c1ccc(C(F)(F)F)c(OC)c1 [Compound 25] | 340
COc1cc(C(=O)N2CCC(c3ccc(N)nn3)CC2)ccc1-c1ccnc(C(F)(F)F)c1 [Compound 61, [4-(6-Amino-pyridazin-3-yl)-piperidin-1-yl]-[3-methoxy-4-(2-trifluoromethyl-pyridin-4-yl)-phenyl]-methanone] | 4100
COc1cc(C(=O)N2CCC(c3ccc(N)nn3)CC2)ncc1-c1ccc(C(F)F)cc1 [Compound 38, [4-(6-Amino-pyridazin-3-yl)-piperidin-1-yl]-[5-(4-difluoromethyl-phenyl)-4-methoxy-pyridin-2-yl]-methanone] | 180
COc1cc(C(=O)N2CCC(c3ccc(N)nn3)CC2)ncc1-c1ccc(C(F)(F)F)cc1Cl [Compound 24, [4-(6-Amino-pyridazin-3-yl)-piperidin-1-yl]-[5-(2-chloro-4-trifluoromethyl-phenyl)-4-methoxy-pyridin-2-yl]-methanone] | 420
COc1cc(C(=O)N2CCC(c3ccc(N)nn3)CC2)ccc1-c1ccc(OC2CC2)nc1 [Compound 73, [4-(6-Amino-pyridazin-3-yl)-piperidin-1-yl]-[4-(6-cyclopropoxy-pyridin-3-yl)-3-methoxy-phenyl]-methanone] | 510
COc1cc(C(=O)N2CCC(c3ccc(N)nn3)CC2)ccc1-c1ccc(OC(F)(F)F)cc1 [Compound 56, [4-(6-Amino-pyridazin-3-yl)-piperidin-1-yl]-(2-methoxy-4′-trifluoromethoxy-biphenyl-4-yl)-methanone] | 910
COc1cc(C(=O)N2CCN(c3cnc(N)cc3OC)C[C@H]2CC(F)F)ncc1-c1ccc(C(F)(F)F)cc1 (single isomer, unassigned) [Compound 110] | 400
COc1cc(C(=O)N2CCN(c3cnc(N)cc3C)C[C@@H]2CO)ncc1-c1ccc(F)cc1 [Compound 93, [(R)-4-(6-Amino-4-methyl-pyridin-3-yl)-2-hydroxymethyl-piperazin-1-yl]-[5-(4-fluoro-phenyl)-4-methoxy-pyridin-2-yl]-methanone] | 27
COc1cc(C(=O)N2CCC(c3ccc(N)nn3)CC2)cnc1-c1ccc(C(F)(F)F)cc1 [Compound 65, [4-(6-Amino-pyridazin-3-yl)-piperidin-1-yl]-[5-methoxy-6-(4-trifluoromethyl-phenyl)-pyridin-3-yl]-methanone] | 860
COc1cc(C(=O)N2CCC(c3ccc(N)nn3)CC2)ccc1-c1ccc(OCC2(C)CC2)nc1 [Compound 79, 6-[1-(3-Methoxy-4-{6-[(1-methylcyclopropyl)methoxy]pyridin-3-yl}benzoyl)piperidin-4-yl]pyridazin-3-amine] | 120
COc1cc(C(=O)N2CCC(c3ccc(N)nc3)CC2)ncc1-c1ccc(F)cc1 [Compound 72, (6-Amino-3′,4′,5′,6′-tetrahydro-2′H-[3,4′]bipyridinyl-1′-yl)-[5-(4-fluoro-phenyl)-4-methoxy-pyridin-2-yl]methanone] | 27
COc1cc(C(=O)N2CCC(c3ccc(N)nn3)CC2)ncc1-c1ccc(OC2CCC2)nc1 [Compound 49, [4-(6-Amino-pyridazin-3-yl)-piperidin-1-yl]-(6′-cyclobutoxy-4-methoxy-[3,3′]bipyridinyl-6-yl)-methanone] | 140
Nc1ccc(C2CCN(C(=O)c3ccc4c(c3)oc3ccccc34)CC2)nn1 [Compound 11, [4-(6-Amino-pyridazin-3-yl)-piperidin-1-yl]-dibenzofuran-3-yl-methanone] | 2000
COc1cc(C(=O)N2CCN(c3cnc(N)cc3OC)C[C@@H]2[C@@H](C)O)ncc1-c1ccc(C(F)(F)F)cc1 [Compound 106, [(R)-4-(6-Amino-4-methoxy-pyridin-3-yl)-2-((R)-1-hydroxy-ethyl)piperazin-1-yl]-[4-methoxy-5-(4-trifluoromethyl-phenyl)-pyridin-2-yl]-methanone] | 440
COC[C@H]1CN(c2cnc(N)cc2OC)CCN1C(=O)c1cc(OC)c(-c2ccc(C(F)(F)F)cc2)cn1 [Compound 99, [(R)-4-(6-Amino-4-methoxy-pyridin-3-yl)-2-methoxymethyl-piperazin-1-yl]-[4-methoxy-5-(4-trifluoromethyl-phenyl)-pyridin-2-yl]-methanone] | 300
CCc1ccc(-c2cnc(C(=O)N3CCC(c4ccc(N)nn4)CC3)cc2OC)cn1 [Compound 44, [4-(6-Amino-pyridazin-3-yl)-piperidin-1-yl]-(6′-ethyl-4-methoxy-[3,3′]bipyridinyl-6-yl)-methanone] | 1700
COc1cc(C(=O)N2CCC(c3ccc(N)nn3)CC2)ncc1-c1ccc(C(F)(F)F)cc1 [Compound 27, 6-(1-{4-Methoxy-5-[4-(trifluoromethyl)phenyl]pyridine-2-carbonyl}piperidin-4-yl)pyridazin-3-amine] | 36
COc1cc(C(=O)N2CCC(c3ccc(N)nn3)CC2)ncc1-c1ccc(OC2CC2)nc1 [Compound 112, [4-(6-Amino-pyridazin-3-yl)-piperidin-1-yl]-(6′-cyclopropoxy-4-methoxy-[3,3′]bipyridinyl-6-yl)-methanone] | 1400
